Results from PMC8151276, “An Integrated Approach toward NanoBRET Tracers for Analysis of GPCR Ligand Engagement” (Molecules, 2021).

Tests used:
Type in all cases: binding
PTGIR = target: T1, PTGIR (Homo sapiens, UniProt P43119); experiment: NanoBRET screen HiBiT-PTGIR in HEK293; settings: PTGIR
T1 construct: purchased Promega (in-house HiBiT-GPCR construct library, NanoBRET)
Protocol: (§1) Each tracer candidate was screened across the entire library of HiBiT-GPCR constructs using NanoBRET as the detection modality. As depicted in Figure 4A, the specificity of interactions was evaluated through decrease in BRET due to competitive displacement of a bound tracer by excess parental compound. Each tracer was analyzed for binding to each HiBiT-GPCR fusion in the absence and in the presence of competing parental compound. Briefly, HEK293 cells were transfected with HiBiT-GPCR constructs diluted into promoterless DNA to reduce expression and maximize translocation to the cell surface. Each tracer candidate was then screened at concentrations of 1 μM and 0.1 μM across cells expressing these fusions. Cells were treated for 1.5 h with tracer either alone or in the presence of 20 μM competing parental compound (i.e., control). BRET was measured upon addition of purified LgBiT and subsequent complementation with HiBiT genetically fused to a GPCR. The specificity of interactions was assessed through a decrease in BRET signal due to competitive displacement of the bound tracer. To further gauge the robustness of these interactions, the fold response over the control (i.e., BRETtracer/BRETcontrol) was calculated. We chose a 1.5-fold response, which translates to ≥7-fold signal over noise as the minimal threshold required to score an interaction as positive. […]. Below we highlight the screening results obtained for our exemplary fluorescent tracers based on Clozapine, Amitriptyline and AZD1283.
(§2) HiBiT-GPCR DNA constructs were diluted in 10 mM Tris pH 8 to a final concentration of 0.01 μg/μL, arrayed in 96-well plates and stored at −20 °C. For transfection, HEK293 cells were suspended in Opti-MEM (without phenol red) supplemented with 2% fetal bovine serum (Seradigm) and 100 units/mL penicillin–streptomycin (Gibco) at a final concentration of 220,000 cells/mL and dispensed into white 96-well plates at 90 μL/well. Subsequent transfections and screens were carried using an Agilent Bravo Automated Liquid Handling Platform. First, the 96-well HiBiT DNA arrays were diluted 25-fold in Opti-MEM (without serum or phenol red) to a final concentration of 0.0004 μg/μL and 20 μL of the diluted DNAs were transferred into new 96-well plates. Next, promoterless carrier DNA (1 μg/μL) was diluted 25-fold (0.04 μg/μL) and then dispensed into the diluted arrays at 20 μL/well. Following brief mixing, Viafect transfection reagent (Promega) diluted 16-fold into Opti-MEM was dispensed into the plates at 40 μL/well. After mixing by pipetting, plates were incubated for 10 min on the pipetting station deck. The DNA-transfection reagent complexes were then added to plates containing cells. To facilitate the screen, 10 μL of DNA-transfection reagent complexes were added in duplicates to the top 4 and bottom 4 rows, resulting in two identical 48-well arrays per plate. Plates with transfected cells were incubated for 18–20 h at 37 °C/5% CO2. A screen of each tracer across the entire library using two different concentrations requires duplicate plates of transfected cells. Depending on the number of tracers being screened, transfections can be scaled up using the same ratios. The next day, for each tracer, four 20× screening solutions in tracer dilution buffer (Promega) were prepared: two duplicates at final concentration of 20 μM and two duplicates at a final concentration of 2 μM. A competing unmodified compound was added to one of each duplicate at a final concentration of 400 μM. The four resulting solutions were diluted 4-fold in Opti-MEM without serum or phenol red to generate 5× solutions (5 µM and 0.5 µM tracer +/− 100 μM competing compound). To screen the library, a BioTek MultiFlo FX liquid dispenser was used to dispense 22.5 µL of tracer solution to the top 4 rows and 22.5 µL tracer + competing compound solution to the 4 bottom rows. Plates were briefly mixed on an orbital shaker and incubated for 1.5 h at room temperature. […]

TACR3 = target: T2, TACR3 (Homo sapiens, UniProt P29371); experiment: NanoBRET screen HiBiT-TACR3 in HEK293
T2 construct: purchased Promega (in-house HiBiT-GPCR construct library, NanoBRET)
T2 sequence (P29371 1-465): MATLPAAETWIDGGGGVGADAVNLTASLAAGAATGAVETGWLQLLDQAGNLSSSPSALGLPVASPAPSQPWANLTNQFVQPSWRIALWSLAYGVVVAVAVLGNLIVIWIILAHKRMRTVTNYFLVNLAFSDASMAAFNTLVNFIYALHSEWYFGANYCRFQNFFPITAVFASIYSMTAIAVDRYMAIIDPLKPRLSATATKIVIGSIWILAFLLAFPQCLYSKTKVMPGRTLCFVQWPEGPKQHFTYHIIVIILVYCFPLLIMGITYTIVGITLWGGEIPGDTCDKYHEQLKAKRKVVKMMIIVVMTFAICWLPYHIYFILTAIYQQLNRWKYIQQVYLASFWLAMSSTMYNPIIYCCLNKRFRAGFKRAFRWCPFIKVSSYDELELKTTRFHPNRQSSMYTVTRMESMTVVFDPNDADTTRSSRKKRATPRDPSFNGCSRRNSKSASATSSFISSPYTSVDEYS
Protocol: as §1, §2

LHCGR = target: T3, LHCGR (Homo sapiens, UniProt P22888); experiment: NanoBRET screen HiBiT-LHCGR in HEK293; settings: LHCGR
T3 construct: purchased Promega (in-house HiBiT-GPCR construct library, NanoBRET)
Protocol: as §1, §2

T1 sequence (P43119 whole entry): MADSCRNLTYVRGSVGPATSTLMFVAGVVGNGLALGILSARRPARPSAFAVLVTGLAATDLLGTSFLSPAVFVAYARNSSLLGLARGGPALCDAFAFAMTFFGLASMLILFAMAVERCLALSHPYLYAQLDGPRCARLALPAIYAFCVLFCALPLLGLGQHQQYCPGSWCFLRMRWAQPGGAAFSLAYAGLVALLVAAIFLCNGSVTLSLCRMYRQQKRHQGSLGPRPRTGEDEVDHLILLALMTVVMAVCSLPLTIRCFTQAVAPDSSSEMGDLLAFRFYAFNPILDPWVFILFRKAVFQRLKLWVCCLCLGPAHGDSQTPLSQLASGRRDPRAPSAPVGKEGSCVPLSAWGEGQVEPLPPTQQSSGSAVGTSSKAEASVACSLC
T3 sequence (P22888 27-699): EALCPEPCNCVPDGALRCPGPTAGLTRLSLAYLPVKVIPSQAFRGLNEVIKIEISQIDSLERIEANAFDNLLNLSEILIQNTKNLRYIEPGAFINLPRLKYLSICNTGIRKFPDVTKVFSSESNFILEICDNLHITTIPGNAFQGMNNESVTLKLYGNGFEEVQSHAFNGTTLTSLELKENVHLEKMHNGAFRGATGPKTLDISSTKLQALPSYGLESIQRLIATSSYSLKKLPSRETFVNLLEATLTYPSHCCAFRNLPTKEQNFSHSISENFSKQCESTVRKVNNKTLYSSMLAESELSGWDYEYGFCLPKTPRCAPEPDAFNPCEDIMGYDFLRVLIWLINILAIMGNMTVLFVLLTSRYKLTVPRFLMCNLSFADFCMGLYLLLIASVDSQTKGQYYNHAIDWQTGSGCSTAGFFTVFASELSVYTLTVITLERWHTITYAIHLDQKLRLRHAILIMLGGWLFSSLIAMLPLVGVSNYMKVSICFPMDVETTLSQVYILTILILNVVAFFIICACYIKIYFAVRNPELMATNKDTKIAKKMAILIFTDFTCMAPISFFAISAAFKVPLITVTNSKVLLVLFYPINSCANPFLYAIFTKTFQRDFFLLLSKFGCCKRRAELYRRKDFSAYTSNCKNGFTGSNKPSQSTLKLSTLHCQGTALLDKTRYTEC

SMILES	NanoBRET Fold Response (PTGIR; tracer 0.1μM)	NanoBRET Fold Response (PTGIR; tracer 1μM)	NanoBRET Fold Response (LHCGR; tracer 0.1μM)	NanoBRET Fold Response (LHCGR; tracer 1μM)	NanoBRET Fold Response (TACR3; TACR3, tracer 0.1μM)	NanoBRET Fold Response (TACR3; TACR3, tracer 1μM)	other results
CN1CCN(C2=Nc3cc(Cl)ccc3Nc3ccc(CNC(=O)CCOCCOCCOCCOCCNC(=O)CCc4ccc5n4[B-](F)(F)[N+]4=C(c6ccc[nH]6)C=CC4=C5)cc32)CC1 [Clozapine-b-2-NB590]	–	–	–	–	–	–	NanoBRET Fold Response (PTGIR; 0.1μM tracer): 0.98; NanoBRET Fold Response (PTGIR; 1μM tracer): 1.00; NanoBRET Fold Response (TACR3; TACR3, 0.1μM tracer): 1.01; NanoBRET Fold Response (TACR3; TACR3, 1μM tracer): 1.05; NanoBRET Fold Response (LHCGR; 0.1μM tracer): 1.06; NanoBRET Fold Response (LHCGR; 1μM tracer): 0.99
CN(C)CCC=C1c2ccccc2CCc2ccc(C(=O)NCCNC(=O)CCOCCOCCOCCOCCNC(=O)CCc3ccc4n3[B-](F)(F)[N+]3=C(c5ccc[nH]5)C=CC3=C4)cc21 [Amitriptyline-b-2-NB590]	0.99	0.98	1.05	1.00	–	–	NanoBRET Fold Response (TACR3; tracer at 1μM, listed as amitriptyline-b-2-NB590): 0.97
CCOC(=O)c1cc(C#N)c(N2CCC(C(=O)NS(=O)(=O)Cc3ccccc3/C=C/C(=O)NCCNC(=O)CCc3ccc4n3[B-](F)(F)[N+]3=C(c5ccc[nH]5)C=CC3=C4)CC2)nc1C [AZD1283-1-NB590]	–	–	–	–	–	–	NanoBRET Fold Response (PTGIR; 0.1μM): 1.04; NanoBRET Fold Response (PTGIR; 1μM): 1.07; NanoBRET Fold Response (TACR3; TACR3, 0.1μM): 1.10; NanoBRET Fold Response (TACR3; TACR3, 1μM): 1.10; NanoBRET Fold Response (LHCGR; 0.1μM): 1.00; NanoBRET Fold Response (LHCGR; 1μM): 1.02
CC(C)N(CC[C@H](c1ccccc1)c1cc(CCNC(=O)CCOCCOCCOCCOCCNC(=O)CCc2ccc3n2[B-](F)(F)[N+]2=C(c4ccc[nH]4)C=CC2=C3)ccc1O)C(C)C [Tolterodine-2-NB590]	1.07	1.12	1.08	1.02	1.11	1.08	–
CC(C)N(CC[C@H](c1ccccc1)c1cc(CCNC(=O)c2ccc(CNC(=O)CCc3ccc4n3[B-](F)(F)[N+]3=C(c5ccc[nH]5)C=CC3=C4)cc2)ccc1O)C(C)C [Tolterodine-BZ-NB590]	1.00	1.04	0.98	1.05	0.98	1.06	–
O=C(CCOCCOCCOCCOCCNC(=O)CCc1ccc2n1[B-](F)(F)[N+]1=C(c3ccc[nH]3)C=CC1=C2)NCCCN1CCN(C2=Nc3ccccc3Oc3ccc(Cl)cc32)CC1 [Loxapine-a-2-NB590]	0.99	1.04	0.97	1.15	1.08	1.11	–
CN1CCN(C2=Nc3cc(Cl)ccc3N(CC(=O)NCCOCCOCCOCCOCCNC(=O)CCc3ccc4n3[B-](F)(F)[N+]3=C(c5ccc[nH]5)C=CC3=C4)c3ccccc32)CC1 [Clozapine-c-2-NB590]	–	–	–	–	–	–	NanoBRET Fold Response (PTGIR; 0.1μM tracer): 0.96; NanoBRET Fold Response (PTGIR; 1μM tracer): 1.09; NanoBRET Fold Response (TACR3; TACR3, 0.1μM tracer): 1.00; NanoBRET Fold Response (TACR3; TACR3, 1μM tracer): 1.00; NanoBRET Fold Response (LHCGR; 0.1μM tracer): 1.05; NanoBRET Fold Response (LHCGR; 1μM tracer): 1.07
CN(C)CCC=C1c2ccccc2CCc2ccc(C(=O)NCCNC(=O)CCOCCOCCOCCOCCNC(=O)CCc3ccc4n3[B-](F)(F)[N+]3=C(c5ccc[nH]5)C=CC3=C4)cc21 [Amitriptyline-a-2-NB590]	–	–	–	–	–	–	NanoBRET Fold Response (TACR3; tracer at 1μM): 1.03
Cc1nc2n(c(=O)c1CCN1CCC(c3noc4cc(F)ccc34)CC1)CCCC2OC(=O)NCCOCCOCCOCCOCCNC(=O)CCc1ccc2n1[B-](F)(F)[N+]1=C(c3ccc[nH]3)C=CC1=C2 (stereo not shown) [Risperidone-2-NB590]	1.02	1.01	0.99	1.04	1.04	1.10	–
COc1ccccc1N1CCN(CCCCN2C(=O)c3ccc(CNC(=O)CCOCCOCCOCCOCCNC(=O)CCc4ccc5n4[B-](F)(F)[N+]4=C(c6ccc[nH]6)C=CC4=C5)cc3C2=O)CC1 [NAN-190-2-NB590]	0.99	1.02	0.98	1.04	–	–	–
